Results taken from US8815940B2, “Coumarin-chalcones as anticancer agents” (Council of Scientific & Industrial Research, priority 2010, dated 2014).
Where two headings read alike, the source gives them in different places.

How the values were obtained:
[1] = test system: mouse embryo fibroblast (NIH3T3); experiment: sulforhodamine B cell cytotoxicity assay, NIH3T3 non-cancer cells; type: cell-based; details: 48 h of exposure
Procedure: (§1) The human cancer cell lines—KB (oral squamous cell carcinoma). C33A (cervical carcinoma), MCF-7 (breast adenocarcinoma), A549 (lung carcinoma) and mouse embryo fibroblast (NIH3T3) were obtained from American Type Culture Collection (ATCC), USA. These cells were grown in recommended media supplemented with 10% FBS, 50 μg/mL gentamycin and 2.5 μg/mL amphotericin B in a 5% CO2 humidified atmosphere at 37° C. Cells below 15 passage level were used for this study. A colorimetric sulforhodamine B assay was used for the measurement of cell cytotoxicity. 1×10^4 cells (in 180 μL) were added to each well of 96-well plate and incubated overnight to allow for cell attachment. Cells were then treated with serial two-fold dilutions of test compounds (100 to 1.6 μM) and untreated cells receiving the same volume of medium served as control. After 48 h of exposure, cells were fixed with ice-cold 50% TCA, stained with 0.4% (w/v) SRB in 1% acetic acid, washed and air dried. Bound dye was dissolved in 150 μL of 10 mM tris base. The plates were read at 540 nm absorbance on plate reader (Polarstar Galaxy, BMG, Germany). The cytotoxic effects of compounds were calculated as % inhibition in cell growth as per the formula […].

[2] = test system: C33A (cervical carcinoma); experiment: sulforhodamine B cell cytotoxicity assay, C33A; type: cell-based, human; details: Homo sapiens, C-33-A, SRB assay, 48 h of exposure
Procedure: as §1

[3] = animal weight and overt toxicity in the xenograft study; type: in vivo, SCID mice; details: ADR 2 mg/kg I.V. Q7dx3
Procedure: (§2) The in vivo efficacy studies were performed using human tumor xenografts in SCID mice. Human cervical cancer cells (HeLa) were injected subcutaneously (1×10^7 cells in 100 μl HBSS medium) on the right flank of each mouse. Tumor bearing mice were divided randomly into treatment groups and the treatment schedules began on day 7 of the xenograft. The test compound (S009-0131) was administered orally to each mouse at a daily dose of 100 mg/kg body weight, for 15 days. The standard anti-cancer drug Adriamycin (ADR) was used as ‘positive’ control and given to each mouse as an i.v. dose of 2 mg/kg body weight, Q7d×3 ([…]). The group of vehicle treated animals served as ‘negative’ control.
(§3) The tumor volume, body weight and signs of overt toxicity were monitored and recorded for the entire duration of the experiment (60 days). Tumor volumes were calculated using the formula (a×b2)/2, where a, b are two longest perpendicular diameters. Tumor growth was expressed in terms of relative tumor volume (RTV) which is the ratio of tumor volume on a particular day to the tumor volume on day 1 of the study. Tumor growth inhibition index (T/C) was calculated as follows: T/C=Average RTV of test group mice/Average RTV of control group mice.

[4] = test system: HeLa Human cervical cancer cells; experiment: human tumor xenograft in SCID mice, tumor growth; type: in vivo; details: ADR 2 mg/kg I.V. Q7dx3
Procedure: as §2, §3

A549 (lung carcinoma) = experiment: sulforhodamine B cell cytotoxicity assay, A549; type: cell-based; details: Homo sapiens, Table 2, SRB assay, 48 h of exposure
Procedure: as §1

[5] = test system: MCF-7 (breast adenocarcinoma); experiment: sulforhodamine B cell cytotoxicity assay, MCF-7; type: cell-based; details: Homo sapiens, MCF7; Table 2; SRB assay, 48 h of exposure
Procedure: as §1

[6] = test system: KB (oral squamous cell carcinoma); experiment: sulforhodamine B cell cytotoxicity assay, KB; type: cell-based; details: Homo sapiens; Table 2; SRB assay, 48 h of exposure
Procedure: as §1

[7] = Table 1, SRB assay, read-out: IC50 NIH3T3 (mouse fibroblast)
[8] = Table 1, read-out: IC50 C33A (cervical cancer)
[9] = Table 2, read-out: IC50 C33A (Cervical)
[10] = Table 2, SRB assay, read-out: IC50 NIH3T3 (Non-cancer, fibroblast)

CCC(C)c1cc(/C=C/C(=O)c2ccc(C)cc2)cc(C=O)c1O (centres unmarked) [Example S008-0392, (E)-3-sec-butyl-2-hydroxy-5-(3-oxo-3-p-tolylprop-1-enyl)benzaldehyde]
IC50 [1, 7]: 129 µM
IC50 [2, 8]: 10.2 µM

COc1cccc2c1C(=O)c1c(O)c3c(c(O)c1C2=O)C[C@@](O)(C(=O)CO)C[C@@H]3O[C@H]1C[C@H](N)[C@H](O)[C@H](C)O1 [Doxorubicin, reference compound]
Average Animal weight ([3]; day 1): 20.7 grams
Average Animal weight ([3]; day 5): 20.9 grams
Average Animal weight ([3]; day 9): 20.6 grams
Average Animal weight ([3]; day 12): 20.3 grams
Average Animal weight ([3]; day 15): 19.6 grams
Average Animal weight ([3]; day 19): 18.3 grams
Average Animal weight ([3]; day 22): 19.7 grams
Average Animal weight ([3]; day 25): 19.9 grams
Average Animal weight ([3]; day 29): 20.4 grams
Average Animal weight ([3]; day 33): 20.6 grams
Average Animal weight ([3]; day 37): 24.8 grams
Average Animal weight ([3]; day 41): 21.8 grams
Average Animal weight ([3]; day 44): 22.1 grams
Average Animal weight ([3]; day 51): 21.2 grams
IC50 [2, 9]: 0.82 µM
RTV (relative tumor volume) ([4]; day 1): 1
T/C (tumor growth inhibition index) ([4]; day 1): 1
RTV (relative tumor volume) ([4]; day 5): 0.69
T/C (tumor growth inhibition index) ([4]; day 5): 0.53
RTV (relative tumor volume) ([4]; day 9): 0.72
T/C (tumor growth inhibition index) ([4]; day 9): 0.44
RTV (relative tumor volume) ([4]; day 12): 0.92
T/C (tumor growth inhibition index) ([4]; day 12): 0.47
RTV (relative tumor volume) ([4]; day 15): 1.39
T/C (tumor growth inhibition index) ([4]; day 15): 0.43
RTV (relative tumor volume) ([4]; day 19): 1.65
T/C (tumor growth inhibition index) ([4]; day 19): 0.45
RTV (relative tumor volume) ([4]; day 22): 3.52
T/C (tumor growth inhibition index) ([4]; day 22): 0.68
RTV (relative tumor volume) ([4]; day 25): 3.84
T/C (tumor growth inhibition index) ([4]; day 25): 0.62
RTV (relative tumor volume) ([4]; day 29): 4.60
T/C (tumor growth inhibition index) ([4]; day 29): 0.63
RTV (relative tumor volume) ([4]; day 33): 4.69
T/C (tumor growth inhibition index) ([4]; day 33): 0.47
T/C (tumor growth inhibition index) ([4]; day 37): 0.58
T/C (tumor growth inhibition index) ([4]; day 41): 0.49
T/C (tumor growth inhibition index) ([4]; day 44): 0.43
T/C (tumor growth inhibition index) ([4]; day 51): 0.43
IC50 (A549 (lung carcinoma)): 0.52 µM
IC50 [5]: 0.61 µM
IC50 [6]: 0.22 µM

CCC(C)c1cc(/C=C/C(=O)c2ccc(C)cc2)cc2cc(C(=O)NC)c(=O)oc12 (centres unmarked) [Example S010-1994, (E)-8-sec-butyl-N-methyl-2-oxo-6-(3-oxo-3-p-tolylprop-1-enyl)-2H-chromene-3-carboxamide]
melting point: 215 to 216 °C

CCN(CC)C(=O)c1cc2cc(/C=C/C(=O)c3ccc(C)cc3)cc(C(C)(C)C)c2oc1=O [Example S010-1992, (E)-8-tert-butyl-N,N-diethyl-2-oxo-6-(3-oxo-3-p-tolylprop-1-enyl)-2H-chromene-3-carboxamide]
IC50 [1, 10]: > 150 µM
IC50 [2, 9]: 1.53 µM
IC50 (A549 (lung carcinoma)): 1.5 µM
melting point: 170 to 171 °C
IC50 [5]: < 7.01 µM
IC50 [6]: 2.02 µM

CCC(C)c1cc(/C=C/C(=O)c2cc(OC)c(OC)c(OC)c2)cc2cc(C(=O)OC)c(=O)oc12 (centres unmarked) [Example S010-2001, (E)-methyl 8-sec-butyl-2-oxo-6-(3-oxo-3-(3,4,5-trimethoxyphenyl)prop-1-enyl)-2H-chromene-3-carboxylate]
IC50 [1, 10]: > 150 µM
IC50 [2, 9]: 2.56 µM
IC50 (A549 (lung carcinoma)): 3.68 µM
melting point: 138 to 139 °C
IC50 [5]: 10.2 µM
IC50 [6]: 3.1 µM

CCOC(=O)c1cc2cc(C=O)cc(C(C)CC)c2oc1=O (centres unmarked) [Example S009-0139, Ethyl 8-sec-butyl-6-formyl-2-oxo-2H-chromene-3-carboxylate]
IC50 [1, 7]: > 150 µM
IC50 [1, 10]: > 150 µM
IC50 [2, 8]: 64.3 µM
IC50 [2, 9]: 64.3 µM
IC50 (A549 (lung carcinoma)): 147 µM
melting point: 89 to 90 °C
IC50 [5]: 113 µM
IC50 [6]: 132 µM

CCC(C)c1cc(C=CC(=O)c2ccccc2)cc2cc(C(=O)OC)c(=O)oc12 (centres unmarked) [Example S009-0133, Methyl 8-sec-butyl-2-oxo-6-(3-oxo-3-phenylprop-1-enyl)-2H-chromene-3-carboxylate]
IC50 [1, 10]: > 150 µM
IC50 [2, 9]: 6.28 µM
IC50 (A549 (lung carcinoma)): 10.7 µM
melting point: 139 to 140 °C
IC50 [5]: 11.4 µM
IC50 [6]: 13.4 µM

COC(=O)c1cc2cc(/C=C/C(=O)c3cc(OC)c(OC)c(OC)c3)cc(C(C)(C)C)c2oc1=O [Example S010-2003, (E)-methyl 8-tert-butyl-2-oxo-6-(3-oxo-3-(3,4,5-trimethoxyphenyl)prop-1-enyl)-2H-chromene-3-carboxylate]
IC50 [1, 10]: > 150 µM
IC50 [2, 9]: 4.99 µM
IC50 (A549 (lung carcinoma)): 11.1 µM
melting point: 145 to 146 °C
IC50 [5]: 13.3 µM
IC50 [6]: 8.3 µM

CCC(C)c1cc(/C=C/C(=O)c2ccc(C)cc2)cc2cc(C(=O)N(CC)CC)c(=O)oc12 (centres unmarked) [Example S010-1996, (E)-8-sec-butyl-N,N-diethyl-2-oxo-6-(3-oxo-3-p-tolylprop-1-enyl)-2H-chromene-3-carboxamide]
IC50 [1, 10]: > 150 µM
IC50 [2, 9]: 3.12 µM
IC50 (A549 (lung carcinoma)): 3.77 µM
melting point: 146 to 147 °C
IC50 [5]: < 7.01 µM
IC50 [6]: 3.55 µM

CCOC(=O)c1cc2cc(C=CC(=O)c3ccc(Cl)cc3)cc(C(C)CC)c2oc1=O (centres unmarked) [Example S009-0135, Ethyl 8-sec-butyl-6-(3-(4-chlorophenyl)-3-oxoprop-1-enyl)-2-oxo-2H-chromene-3-carboxylate]
IC50 [1, 10]: 38.4 µM
IC50 [2, 9]: 4.54 µM
IC50 (A549 (lung carcinoma)): 12.8 µM
IC50 [5]: 11.1 µM
IC50 [6]: 14.3 µM

CCOC(=O)c1cc2cc(/C=C/C(=O)c3cc(OC)c(OC)c(OC)c3)cc(C(C)CC)c2oc1=O (centres unmarked) [Example S010-2000, (E)-ethyl 8-sec-butyl-2-oxo-6-(3-oxo-3-(3,4,5-trimethoxyphenyl)prop-1-enyl)-2H-chromene-3-carboxylate]
IC50 [1, 10]: > 150 µM
IC50 [2, 9]: 5.72 µM
IC50 (A549 (lung carcinoma)): 11.6 µM
melting point: 128 to 129 °C
IC50 [5]: 11.5 µM
IC50 [6]: 9.36 µM

Cc1ccc(C(=O)/C=C/c2cc(C(C)(C)C)c3oc(=O)c(C(=O)O)cc3c2)cc1 [Example-9, (E)-8-tert-butyl-2-oxo-6-(3-oxo-3-p-tolylprop-1-enyl)-2H-chromene-3-carboxylic Acid]
melting point: 185 to 186 °C

CCOC(=O)c1cc2cc(C=CC(=O)c3ccccc3)cc(C(C)CC)c2oc1=O (centres unmarked) [Example S009-0132, Ethyl 8-sec-butyl-2-oxo-6-(3-oxo-3-phenylprop-1-enyl)-2H-chromene-3-carboxylate]
IC50 [1, 10]: > 150 µM
IC50 [2, 9]: 8.12 µM
IC50 (A549 (lung carcinoma)): 12.9 µM
melting point: 155 to 156 °C
IC50 [5]: 88.1 µM
IC50 [6]: 10.5 µM

CCNC(=O)c1cc2cc(/C=C/C(=O)c3ccc(C)cc3)cc(C(C)CC)c2oc1=O (centres unmarked) [Example S010-1995, (E)-8-sec-butyl-N-ethyl-2-oxo-6-(3-oxo-3-p-tolylprop-1-enyl)-2H-chromene-3-carboxamide]
IC50 [1, 10]: > 150 µM
IC50 [2, 9]: 5.56 µM
IC50 (A549 (lung carcinoma)): > 150 µM
melting point: 162 to 163 °C
IC50 [5]: 22.2 µM
IC50 [6]: 10.7 µM

CCC(C)c1cc(C=CC(=O)c2ccc(Cl)cc2)cc2cc(C(=O)OC)c(=O)oc12 (centres unmarked) [Example S009-0136, Methyl 8-sec-butyl-6-(3-(4-chlorophenyl)-3-oxoprop-1-enyl)-2-oxo-2H-chromene-3-carboxylate]
IC50 [1, 10]: 42.4 µM
IC50 [2, 9]: 5.9 µM
IC50 (A549 (lung carcinoma)): 16.7 µM
melting point: 145 to 146 °C
IC50 [5]: 10.8 µM
IC50 [6]: 28.2 µM
